Legend:
RS4;11 cells = experiment: RS4;11 cell proliferation assay (CellTiter-Glo); assay type: cell-based; settings: Homo sapiens, RS4-11, 48 h, read-out: RS4;11 (nM), CTG IC50
NCI-H1963 cells = experiment: NCI-H1963 cell proliferation assay (CellTiter-Glo); assay type: cell-based; settings: Homo sapiens, NCI-H1963, 72 h, read-out: H1963 (nM), CTG IC50
Experimental: Cell proliferation was measured using the CellTiter-Glo® Luminescent Cell Viability Assay. The assay involved the addition of a single reagent (CellTiter-Glo® Reagent) directly to cells cultured in serum-supplemented medium.
Each compound evaluated was prepared as a DMSO stock solution (10 mM). Compounds were tested in duplicate on each plate, with a 10-point serial dilution curve (1:3 dilution). Compound treatment (1.0 μL) was added from the compound dilution plate to the cell plate. The highest compound concentration was 10 μM (final), with a 0.1% final DMSO concentration. Plates were then incubated at 37° C., 5% CO2. After 48 h of compound treatment for RS4;11 or 72 h for NCI-H1963, cell plates were equilibrated at rt for approximately 30 mins. An equi-volume amount of CellTiter-Glo® Reagent (40 μL) was added to each well. […] Luminescence was recorded using a Envision plate reader according to CellTiter-Glo protocol. IC50 of each compound was calculated using GraphPad Prism by nonlinear regression analysis.

Bcl-2 = Bcl-2 (Homo sapiens (Human), UniProt P10415); experiment: Bcl-2 HTRF assay (FAM-Bak peptide); assay type: binding; settings: HTRF, 4 nM Bcl-2, 100 nM FAM-Bak peptide; read-out: Bc1-2 IC50
Chain of Bcl-2 (P10415 whole entry): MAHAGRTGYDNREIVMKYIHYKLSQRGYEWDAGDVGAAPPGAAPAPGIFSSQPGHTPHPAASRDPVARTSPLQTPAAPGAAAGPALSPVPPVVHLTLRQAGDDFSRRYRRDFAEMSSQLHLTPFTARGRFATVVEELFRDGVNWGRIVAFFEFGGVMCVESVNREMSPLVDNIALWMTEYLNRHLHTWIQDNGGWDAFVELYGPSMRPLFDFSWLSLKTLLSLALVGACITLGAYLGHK

Bcl-XL = Bcl-XL (Homo sapiens (Human), UniProt Q07817); experiment: Bcl-XL HTRF assay (FAM-Bad peptide); assay type: binding; settings: HTRF, 3 nM Bcl-XL, 40 nM FAM-Bad peptide; read-out: Bc1-XL IC50
Chain of Bcl-XL (Q07817 whole entry): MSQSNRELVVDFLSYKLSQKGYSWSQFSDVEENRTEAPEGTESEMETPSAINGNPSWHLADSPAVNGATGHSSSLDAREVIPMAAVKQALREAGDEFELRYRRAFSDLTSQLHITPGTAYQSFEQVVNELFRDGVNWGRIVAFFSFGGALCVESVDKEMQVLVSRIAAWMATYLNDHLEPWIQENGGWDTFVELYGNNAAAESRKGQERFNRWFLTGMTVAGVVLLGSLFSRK

Row | SMILES | IC50 (RS4;11 cells) | IC50 (NCI-H1963 cells) | IC50 (Bcl-2) | IC50 (Bcl-XL)
1 | CN(C)CC[C@H](CSc1ccccc1)Nc1ccc(S(=O)(=O)NC(=O)c2ccc(N3CCN(CC4=C(C56CC(C(F)F)(C5)C6)CC(C)(C)CC4)CC3)cc2)cc1S(=O)(=O)C(F)(F)F [Example 63, (R)-4-(4-((2-(3-(Difluoromethyl)bicyclo[1.1.1]pentan-1-yl)-4,4-dimethylcyclohex-1-en-1-yl)methyl)piperazin-1-yl)-N-((4-((4-(dimethylamino)-1-(phenylthio)butan-2-yl)amino)-3-((trifluoromethyl)sulfonyl)phenyl)sulfonyl)benzamide] | < 100 nM | < 500 nM | ≤ 0.01 µM | ≤ 0.01 µM
2 | CC1(C)CCC(CN2CCN(c3ccc(C(=O)NS(=O)(=O)c4ccc(N[C@H](CCN5CCNCC5)CSc5ccccc5)c(S(=O)(=O)C(F)(F)F)c4)cc3)CC2)=C(C23CC(C(F)F)(C2)C3)C1 [Example 64, (R)-4-(4-((2-(3-(difluoromethyl)bicyclo[1.1.1]pentan-1-yl)-4,4-dimethylcyclohex-1-en-1-yl)methyl)piperazin-1-yl)-N-((4-((1-(phenylthio)-4-(piperazin-1-yl)butan-2-yl)amino)-3-((trifluoromethyl)sulfonyl)phenyl)sulfonyl)benzamide] | 100 to 1000 nM | > 1000 nM | ≤ 0.01 µM | ≤ 0.01 µM
3 | CCN(CCO)CC[C@H](CSc1ccccc1)Nc1ccc(S(=O)(=O)NC(=O)c2ccc(N3CCN(CC4=C(C56CC(C(F)F)(C5)C6)CC(C)(C)CC4)CC3)cc2)cc1S(=O)(=O)C(F)(F)F [Example 70, (R)-4-(4-((2-(3-(difluoromethyl)bicyclo[1.1.1]pentan-1-yl)-4,4-dimethylcyclohex-1-en-1-yl)methyl)piperazin-1-yl)-N-((4-((4-(ethyl(2-hydroxyethyl)amino)-1-(phenylthio)butan-2-yl)amino)-3-((trifluoromethyl)sulfonyl)phenyl)sulfonyl)benzamide] | 100 to 1000 nM | > 1000 nM | ≤ 0.01 µM | ≤ 0.01 µM

— patent publication US11318134B2, “Benzamide compounds” (priority 2018, dated 2022)
